Each compound was assayed on RBL-2H3 (assay: Inhibition of DNP-BSA-induced degranulation in rat RBL2H3 cells assessed as reduction in beta-hexosaminidase release after 20 mins by spectrophotometry). Details: RBL-2H3, 20 min.
Format: functional, cell-based

Row | Compound | IC50 [µM]
1 | C=CC(CC(=O)c1ccc(O)cc1)c1cccc(OC)c1 (stereo not given) | 17.9
2 | C=CC(CC(=O)c1ccc(O)cc1)c1ccc(O)cc1 (stereo not given) | 34.6
3 | C=CC(CC(=O)c1ccc(O)cc1)c1cccc(O)c1 (stereo not given) | 18.3
4 | C=CC(CC(O)c1ccc(O)cc1)c1ccc(O)cc1 (stereo not given) | > 200
5 | C=CC(CC(=O)c1ccc(OC)cc1)c1cccc(O)c1 (stereo not given) | 90.5
6 | C=CC(CC(O)c1ccc(O)cc1)c1cccc(O)c1 (stereo not given) | 34.1
7 | CN1CCC(=C2c3ccccc3CC(=O)c3sccc32)CC1 [KETOTIFEN] | 35.2

The next lines start with the values.

Row | IC50 [µM] | Compound
8 | > 200 | C=CC(/C=C/c1ccc(OC)cc1)c1ccc(OC)cc1 (stereo not given)
9 | > 200 | C=CC(/C=C/c1ccc(OC)cc1)c1cccc(OC)c1 (stereo not given)
10 | 55.2 | C=CC(/C=C/c1ccc(O)cc1)c1ccc(O)cc1 (stereo not given)
11 | 55.6 | C=CC(/C=C/c1ccc(O)cc1)c1cccc(O)c1 (stereo not given)
12 | 88.5 | C=CC(CC(=O)c1ccc(OC)cc1)c1ccc(OC)cc1 (stereo not given)
13 | > 200 | C=CC(CC(O)c1ccc(OC)cc1)c1ccc(OC)cc1 (stereo not given)
14 | > 200 | C=CC(CC(O)c1ccc(OC)cc1)c1cccc(OC)c1 (stereo not given)
15 | 85.4 | C=CC(CC(=O)c1ccc(OC)cc1)c1cccc(OC)c1 (stereo not given)

Source: ChEMBL document CHEMBL2029333, “Synthesis of norlignans and in vitro inhibitory activity of antigen-induced degranulation” (Bioorg Med Chem Lett, 2012)
